Laboratory results published in ChEMBL document CHEMBL2146452, “Creation of readily accessible and orally active analogue of cortistatin a” (ACS Med Chem Lett, 2012).
Active and inactive are the calls of the source. The rule behind the calls is not given here.

Key:
KB 3-1 = experiment: Selectivity index, ratio of IC50 for human KB3-1 cells to IC50 for HUVEC
[1] = Antiproliferative activity against human KB3-1 cells after 72 hrs by WST8 assay; type: cell-based; details: KB 3-1, 72 h
HUVEC = experiment: Antiproliferative activity against HUVEC after 72 hrs by WST8 assay; type: functional, cell-based; details: Homo sapiens
Mus musculus [2] = experiment: Antiangiogenic activity in ddY mouse assessed as inhibition of bFGF-induced capillary formation in matrigel plug measured as hemoglobin level at 5 to 25 mg/kg, po administered QOD for 10 days by Drabkin reagent-based assay; type: functional, organism-based
CCRF S-180 [3] = experiment: Antitumor activity against mouse S180 cells xenografted in ddY mouse assessed as tumor growth inhibition at >5 mg/kg, po administered QOD for 14 days relative to vehicle-treated control; type: functional, organism-based
CCRF S-180 [4] = experiment: Antitumor activity against mouse S180 cells xenografted in ddY mouse assessed as tumor growth inhibition at >25 mg/kg, po administered QOD for 14 days relative to vehicle-treated control; type: functional
Mus musculus [5] = experiment: Toxicity in S180 cells xenografted ddY mouse assessed as body weight loss up to 100 mg/kg, po administered QOD for 14 days relative to vehicle-treated control; type: organism-based, CCRF S-180; set-up: dose 100 mg/kg, route oral; details: in vivo, 336 h
K562 = experiment: Antiproliferative activity against human K562 cells; type: cell-based
[6] = Antiproliferative activity against mouse Neuro2a cells; type: cell-based; details: N2a
Mus musculus [7] = experiment: Toxicity in S180 cells xenografted ddY mouse assessed as diarrhea up to 100 mg/kg, po administered QOD for 14 days; type: organism-based, CCRF S-180; set-up: dose 100 mg/kg, route oral; details: in vivo, 336 h
NHDF = experiment: Antiproliferative activity against human NHDF cells; type: cell-based
CCRF S-180 [8] = experiment: Antitumor activity against mouse S180 cells xenografted in po dosed ddY mouse assessed as tumor growth inhibition; type: functional, organism-based

Structure (SMILES)	Ratio IC50 (KB 3-1)	IC50 [1] [µM]	IC50 (HUVEC) [µM]	inhibition (Mus musculus [2])	growth inhibition (GI) (CCRF S-180 [3])	growth inhibition (GI) (CCRF S-180 [4]) [%]	Activity (Mus musculus [5])	IC50 (K562) [µM]	IC50 [6] [µM]	Activity (Mus musculus [7])	IC50 (NHDF) [µM]	growth inhibition (GI) (CCRF S-180 [8])
CN(C)c1ccc(/C=C2/CC[C@@]3(C)[C@@H](CC[C@@H]3c3ccc4ccncc4c3)C2)cc1	1.5	20	15	–	–	–	–	–	–	–	–	–
C[C@]12CCC3=CC4=C(CCCC4=O)O[C@H]3[C@@H]1CC[C@@H]2c1ccc2ccncc2c1	>100	10.5	0.035	Active	Active	90	Non-toxic	5	10.5	Non-toxic	4	–
CN(C)C1CC=C(/C=C2/CC[C@@]3(C)[C@@H](CC[C@@H]3c3ccc4ccncc4c3)C2)CC1 (some centres undefined)	9	18	2	–	–	–	–	–	–	–	–	–
C[C@]12C=CC3=CC4=C(CCCC4=O)O[C@H]3[C@@H]1CC[C@@H]2c1ccc2ccncc2c1	>100	10.5	0.1	–	–	–	–	6	10.5	–	10.5	Active
